Test results from patent publication US5112866A, “Ethanesulfonamide derivatives” (Ortho Pharmaceutical Corporation, priority 1989, dated 1992).
Read-outs that look alike come from different tables or passages of the source. Each block holds one molecule with its values, some of them ahead of it.

Columns and labels:
Gastric Secretion = experiment: Inhibition of Gastric Secretion in Rat (pylorus ligated); type: in vivo, rat (male Charles River); details: intraduodenal, four hours after pylorus ligation
Procedure: Inhibition of Gastric Secretion in Rat
Male Charles River rats weighing 150-300 grams were deprived of food but not water for 18-24 hours prior to use. Water was withheld during the experiment. The rats were weighed, anesthetized with ether and the pylorus ligated according to the method of Shay, H. et al., Gastroenterol. 26, 906 (1954). Test compounds were suspended in a 0.5% aqueous solution of methylcellulose (15 cps) and administered intraduodenally (i.d.) at the time of ligation. The rats were housed two per cage and sacrificed with CO2 four hours after ligation. The stomachs were removed and contents emptied into a graduated centrifuge tube. The tubes were centrifuged, the volume of gastric juice recorded, and any samples obviously contaminated by feces, food or blood eliminated. A 1 ml aliquot of gastric juice was titrated with 0.1 N NaOH to a pH of 7.0-7.4.
The volume of gastric juice secreted, the acid concentration, and the product of the volume times the concentration, i.e., the total amount of acid secreted, were statistically compared by a student's t-test using the pooled error variance.

[1] = test system: Rabbit Isolated Parietal Cells; experiment: Inhibition of 14C-aminopyrine accumulation in stimulated rabbit isolated parietal cells; type: cell-based; details: Oryctolagus cuniculus, 37° C.
From the text: Pharmacology of the Ethanesulfonamide Compounds - Rabbit Isolated Parietal Cells
Parietal cells were isolated from the fundic mucosa of rabbit stomachs by a four-stage collagenase digestion Process. The supernatant fraction from the last two stages of this Process contained the individual parietal cells. This cell suspension was centrifuged and reconstituted in a modified Hank's buffer to contain 2-3×10^6 cells/ml. […] The accumulation is stimulated by histamine and is blocked by H2 antagonists. Accumulation of ^14 C-AP is also stimulated by dibutyryl cAMP (dbcAMP). The cells were incubated with 0.5×10^6 cpm ^14 C-AP, with various concentrations of histamine or dbcAMP, […] isobutylmethylxanthine, and test compound added in a 20 μl volume of buffer or dimethylsulfoxide. The flasks were incubated in a shaking water bath at 37° C. Two 0.5 ml aliquots were then taken from each flask and cell pellets were collected by centrifugation. The pellets were solubilized with Protosol (NEN) and radioactivity determined by liquid scintillation spectrometry.
The concentration of compound required to inhibit ^14 C-AP accumulation in the stimulated parietal cell by 50% (IC50) was determined.

tibia = experiment: In vivo [3H]Tetracycline incorporation into tibia, bone mitogen activity in the aged Fisher 344 rat; design: species or system rat (female Fisher 344); details: daily intraperitoneal, sesame oil
Procedure: (§1) Pharmacology of the Ethenesulfonyl Fluoride Compounds--[…] Bone Mitogen Activity in the Aged Fisher 344 Rat
(§2) Animals: Female Fisher 344 rats, 12 months of age, were housed in climate controlled light/dark (12-hour cycle) rooms and given food and water ad libitum.
(§3) Test Compounds: The test compounds were suspended in sesame oil and administered daily via intraperitoneal injections; vehicle treated rats were administered sesame oil along (2 mL/kg).
In vivo [^3 H]Tetracycline Incorporation: Tritiated tetracycline, which is rapidly concentrated in the growing skeleton, can be used as a relative measure of bone forming surface in vivo. [^3 H]Tetracycline was injected intraperitoneally at a dose of 0.125 μCi/g body weight in a 0.9% NaCl solution. Two hours after injection, rats were bled by cardiac puncture and then killed by CO2 asphyxiation and the tibia removed and cleaned of tissue and marrow. The tibia are homogenized and digested in 2 N NaOH for 2 hours. The precipitate is washed and then hydrolyzed in 6N Hcl. An aliquot of the resulting supernatant is analyzed for tritiutum.

[2] = test system: Mouse osteoblastic-line cells (MC3T3-El); experiment: Mouse Osteoblast-line Cell Proliferation (3H-thymidine); type: cell-based; details: 0.1% FBS
Procedure: Pharmacology of the Ethenesulfonyl Fluoride Compounds--In Vitro Mouse Osteoblast-line Cell Proliferation
Reagents: Mouse osteoblastic-line cells (MC3T3-El) were plated in Dulbeccos Modified Eagles Medium (DMEM) with 25 mM Hepes Buffer, L-Glutamine, D-Glucose(4.5 gm/1) supplemented with 10% fetal bovine sera, Penicillin (100 units/ml) and Streptomycin ([…]) (Penicillin-Streptomycin liquid) and sodium pyruvate (10 μM final concentration). ^3 H-Thymidine (6.7 Ci/mmole) was diluted in DMEM media without FBS and filter sterilized. An aliquot of this solution was delivered to each culture well to a final concentration of ^3 H-thymidine of 0.4 μCi per well (2 μCi/ml).
Test Preparations: Solutions of the test compound were made on the day before incubation. These compounds were solubilized in either ethanol or DMSO at a concentration of 100 mM containing 0.1% FBS. The solutions were filter sterilized and then sterile serial dilutions were performed with DMEM media containing 0.1% FBS.
Osteoblast line cells were plated into 96 well culture plates, 1600 cells in 100 μL per well in DMEM with 25 mM Hepes Buffer, L-Glutamine, D-Glucose (4.5 gm/L) supplemented with 10% fetal bovine sera, Penicillin (100 units/mL) and Streptomycin (100 μg/mL) and sodium Pyruvate (10 μM final concentration). The media was replaced with DMEM containing no FBS and the cells were then incubated for an additional 24 hours. The following day, test compounds were added and screened at concentrations ranging from 10^-10 to 10^-5 M in the Presence of 0.1% FBS. The cells were then incubated an additional 20 hours. At this time 0.4 μ/Ci of 3H-thymidine was added to each culture well and the cells were incubated an additional 4 hours. The cells were then harvested with a Skatron Cell Harvester onto a glass fiber filter and washed with water, %5 trichloroacetic acid (TCA) and then 95% ethanol. The filters were then processed and counted on the LKB beta plate scintillation counter.

bone protein = experiment: In vivo [3H]Proline incorporation into bone protein, bone mitogen activity in the aged Fisher 344 rat; design: species or system rat (female Fisher 344); details: daily intraperitoneal, sesame oil
Procedure: as §1, §2, §3
In vivo [^3 H]Proline Incorporation: [^3 H]Proline incorporation into bone protein was carried out as previously described (Reddi and Huggins, 1975). [^3 H]Proline was injected intraperitoneally at a dose of 0.5 μCi/g body weight in 0.9% NaCl. Four hours after the injection, rats were bled by cardiac puncture and then killed by CO2 asphyxiation and the tibia removed and the radioactivity quantified as in Example 28.

[3] = cited from earlier work
osteoblasts = details: Farley, et al., Science, 1983; cited from earlier work
[4] = 14C-AP accumulation stimulated by dibutyryl cAMP, read-out: IC50 (dbcAMP)
[5] = 14C-AP accumulation stimulated by histamine, read-out: IC50 (H)

IC50 [1, 4]: 130 nM | IC50 [1, 5]: 370 nM
SMILES: O=S(=O)(CCNc1ccc(Cl)c(Cl)c1)NCCCOc1cccc(CN2CCCCC2)c1 [Example 1]
% Reduction of Total Acid Output (Gastric Secretion; Dose 40 MPK): 47.9%

IC50 [1, 4]: 230 nM | IC50 [1, 5]: 280 nM
SMILES: CCCCc1ccc(NCCS(=O)(=O)NCCCOc2cccc(CN3CCCCC3)c2)cc1 [Example 10, 2-[(4-Butylphenyl)amino]-N-[3-[3-(piperidinomethyl)phenoxy]propyl]ethanesulfonamide]
% Reduction of Total Acid Output (Gastric Secretion; Dose 20 MPK): 23.3%

IC50 [1, 4]: 3700 nM | IC50 [1, 5]: 120 nM
SMILES: O=[N+]([O-])c1ccc(NCCS(=O)(=O)NCCCOc2cccc(CN3CCCCC3)c2)cc1 [Example 4, 2-[(4-Nitrophenyl)amino]-N-[3-[3-(piperidinomethyl)phenoxy]propyl]ethanesulfonamide]
% Reduction of Total Acid Output (Gastric Secretion; Dose 40 MPK): 30.8%

IC50 [1, 4]: 2300 nM | IC50 [1, 5]: 390 nM
SMILES: CCOC(=O)c1ccc(NCCS(=O)(=O)NCCCOc2cccc(CN3CCCCC3)c2)cc1 [Example 3]
% Reduction of Total Acid Output (Gastric Secretion; Dose 40 MPK): 25.6%

IC50 [1, 4]: 460 nM | IC50 [1, 5]: 58 nM
SMILES: CC1CCN(Cc2cccc(OCCCNS(=O)(=O)CCNc3ccc(Cl)c(Cl)c3)c2)CC1 [Example 11, 2-[(3,4-Dichlorophenyl)amino]-N-[3-[3-[(4-methylpiperidin-1-yl)methyl]-phenoxy]propyl]ethanesulfonamide]
% Reduction of Total Acid Output (Gastric Secretion; Dose 20 MPK): 29.0%

IC50 [1, 4]: 1820 nM | IC50 [1, 5]: 920 nM
SMILES: O=S(=O)(CCNc1ccc(F)cc1)NCCCOc1cccc(CN2CCCCC2)c1 [Example 2, 2-[(4-Fluorophenyl)amino]-N-[3-[3-(piperidinomethyl)phenoxy]propyl]ethanesulfonamide]
% Reduction of Total Acid Output (Gastric Secretion; Dose 40 MPK): 22.1%

The remaining lines, values behind:

SMILES: O=S(=O)(CCNc1ccc(Cl)c(C(F)(F)F)c1)NCCCOc1cccc(CN2CCCCC2)c1 [Example 9, 2-[(4-Chloro-3-trifluoromethylphenyl)amino]-N-[3-[3-(piperidinomethyl)phenoxy]propyl]ethanesulfonamide]
% Reduction of Total Acid Output (Gastric Secretion; Dose 40 MPK): 24.7% | IC50 [1, 4]: 310 nM | IC50 [1, 5]: 160 nM

SMILES: O=S(=O)(F)CCNc1ccc(Cl)cc1 [Example 15]
Percent Incorporation of [3H]Tetracycline of Control (tibia; 15 mg/Kg): 118.0 Percent Incorporation of Contr | Percent Incorporation of [3H]Tetracycline of Control (tibia; 25 mg/Kg): 114.0 Percent Incorporation of Contr | Percent Incorporation of [3H]Tetracycline of Control (tibia; 50 mg/Kg): 125.1 Percent Incorporation of Contr | Mouse Osteoblast-line Cell Proliferation [Expressed as a Percent of Control] ([2]; 0.001 μM): 129.6% of Control | Mouse Osteoblast-line Cell Proliferation [Expressed as a Percent of Control] ([2]; 0.01 μM): 119.9% of Control | Mouse Osteoblast-line Cell Proliferation [Expressed as a Percent of Control] ([2]; 0.1 μM): 123.5% of Control | Mouse Osteoblast-line Cell Proliferation [Expressed as a Percent of Control] ([2]; 1.0 μM): 93.4% of Control | Mouse Osteoblast-line Cell Proliferation [Expressed as a Percent of Control] ([2]; 10 μM): 106.7% of Control

SMILES: COc1cc(NCCS(=O)(=O)F)c(C(C)=O)cc1OC [Example 14]
Percent Incorporation of [3H]Tetracycline of Control (tibia; 50 mg/Kg): 119.6 Percent Incorporation of Contr | Mouse Osteoblast-line Cell Proliferation [Expressed as a Percent of Control] ([2]; 0.001 μM): 120.9% of Control | Mouse Osteoblast-line Cell Proliferation [Expressed as a Percent of Control] ([2]; 0.01 μM): 159.5% of Control | Mouse Osteoblast-line Cell Proliferation [Expressed as a Percent of Control] ([2]; 0.1 μM): 125.3% of Control | Mouse Osteoblast-line Cell Proliferation [Expressed as a Percent of Control] ([2]; 1.0 μM): 170.3% of Control | Mouse Osteoblast-line Cell Proliferation [Expressed as a Percent of Control] ([2]; 10 μM): 180.3% of Control | Percent Incorporation of [3H]Proline of Control (bone protein; 15 mg/Kg): 100.7 Percent Incorporation of Contr | Percent Incorporation of [3H]Proline of Control (bone protein; 50 mg/Kg): 118.1 Percent Incorporation of Contr | Percent Incorporation of [3H]Proline of Control (bone protein; 150 mg/Kg): 121.0 Percent Incorporation of Contr

SMILES: [F-].[Na+] [sodium fluoride, Sodium fluoride]
rate of bone fracture ([3]; fluoride treatment, Riggs, et al., N. Engl. J. Med., 1982): significantly decreased | adverse reactions ([3]; in vivo): gastrointestinal side effects (nausea, vomiting, diarrhea and bleeding) and rheumatic complications (synovitis and plantar fascial syndrome) | bone formation and bone mass ([3]; osteoporosis): increases bone formation and leads to an increase in bone mass in osteoporosis | proliferation and activity of bone forming cells, osteoblasts (osteoblasts): causes proliferation and increases the activity of bone forming cells, osteoblasts
